Data: ChEMBL document CHEMBL5303573, “Mapping human microbiome drug metabolism by gut bacteria and their genes” (Nature, 2019)

What was measured:
Conditions in all cases: 2 µM
[1] = The drug is tested on Proteus penneri strain: ATCC35198 for biotransformation. The drug concentrations were measured before and after a 12-h incubation by liquid-chromatography-coupled mass spectrometry (LC–MS)
[2] = The drug is tested on the gut metagenome community of MV19 with ENA study accession number: PRJEB31790 and ENA sample accession number: SAMEA5537500 for biotransformation. The drug concentrations were measured over 9 timepoints collected between 0 and 24 hours of incubation by liquid-chromatography-coupled mass spectrometry (LC–MS); assay type: ADME; set-up: dose 2 uM, timepoint 0, 1, 2, 4, 6, 8, 12, 18, 24 hours
[3] = The drug is tested on the gut metagenome community of MV21 with ENA study accession number: PRJEB31790 and ENA sample accession number: SAMEA5537502 for biotransformation. The drug concentrations were measured over 9 timepoints collected between 0 and 24 hours of incubation by liquid-chromatography-coupled mass spectrometry (LC–MS); assay type: ADME; set-up: dose 2 uM, timepoint 0, 1, 2, 4, 6, 8, 12, 18, 24 hours
[4] = The drug is tested on the gut metagenome community of MV18 with ENA study accession number: PRJEB31790 and ENA sample accession number: SAMEA5537499 for biotransformation. The drug concentrations were measured over 9 timepoints collected between 0 and 24 hours of incubation by liquid-chromatography-coupled mass spectrometry (LC–MS); assay type: ADME; set-up: dose 2 uM, timepoint 0, 1, 2, 4, 6, 8, 12, 18, 24 hours
[5] = molecular target: T1, Sialic acid-specific 9-O-acetylesterase (Bacteroides thetaiotaomicron, UniProt Q8A0D0); experiment: (§1) The drug is tested on Bacteroides thetaiotaomicron strain: VPI-5482 for biotransformation. The drug concentrations were measured before and after a 12-h incubation by liquid-chromatography-coupled mass spectrometry (LC–MS); assay type: ADME; set-up: dose 2 uM
T1 sequence (Q8A0D0 whole entry): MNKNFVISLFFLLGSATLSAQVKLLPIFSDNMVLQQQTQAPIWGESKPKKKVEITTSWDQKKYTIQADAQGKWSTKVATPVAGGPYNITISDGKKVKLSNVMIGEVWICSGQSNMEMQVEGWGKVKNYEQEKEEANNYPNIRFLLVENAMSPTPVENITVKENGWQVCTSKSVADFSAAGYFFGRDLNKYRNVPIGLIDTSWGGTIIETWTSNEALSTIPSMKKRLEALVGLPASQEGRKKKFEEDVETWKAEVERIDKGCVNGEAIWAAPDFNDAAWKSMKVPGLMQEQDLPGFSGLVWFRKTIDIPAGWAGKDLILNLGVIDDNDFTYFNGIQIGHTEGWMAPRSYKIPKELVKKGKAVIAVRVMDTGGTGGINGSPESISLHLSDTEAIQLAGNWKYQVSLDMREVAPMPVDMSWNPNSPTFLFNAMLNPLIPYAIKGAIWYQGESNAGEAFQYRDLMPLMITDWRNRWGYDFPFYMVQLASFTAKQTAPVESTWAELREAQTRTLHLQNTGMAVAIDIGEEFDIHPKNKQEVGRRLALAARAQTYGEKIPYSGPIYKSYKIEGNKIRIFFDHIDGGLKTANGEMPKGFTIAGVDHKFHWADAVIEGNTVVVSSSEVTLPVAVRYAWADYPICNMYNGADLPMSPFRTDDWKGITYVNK

Lipase = molecular target: T2, Lipase (Bacteroides thetaiotaomicron, UniProt Q8A3J3); experiment: as §1; assay type: ADME; set-up: dose 2 uM
T2 sequence (Q8A3J3 whole entry): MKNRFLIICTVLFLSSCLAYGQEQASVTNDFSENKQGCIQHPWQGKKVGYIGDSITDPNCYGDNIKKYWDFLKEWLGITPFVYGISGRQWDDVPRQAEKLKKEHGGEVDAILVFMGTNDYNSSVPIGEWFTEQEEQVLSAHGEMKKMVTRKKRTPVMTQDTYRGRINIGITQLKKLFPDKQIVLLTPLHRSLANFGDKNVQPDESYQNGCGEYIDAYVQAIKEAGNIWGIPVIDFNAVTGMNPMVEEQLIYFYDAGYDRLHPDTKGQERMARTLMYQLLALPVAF

[6] = molecular target: T3, Sialic acid-specific acetylesterase (Bacteroides thetaiotaomicron, UniProt Q8A331); experiment: as §1; assay type: ADME; set-up: dose 2 uM
T3 sequence (Q8A331 whole entry): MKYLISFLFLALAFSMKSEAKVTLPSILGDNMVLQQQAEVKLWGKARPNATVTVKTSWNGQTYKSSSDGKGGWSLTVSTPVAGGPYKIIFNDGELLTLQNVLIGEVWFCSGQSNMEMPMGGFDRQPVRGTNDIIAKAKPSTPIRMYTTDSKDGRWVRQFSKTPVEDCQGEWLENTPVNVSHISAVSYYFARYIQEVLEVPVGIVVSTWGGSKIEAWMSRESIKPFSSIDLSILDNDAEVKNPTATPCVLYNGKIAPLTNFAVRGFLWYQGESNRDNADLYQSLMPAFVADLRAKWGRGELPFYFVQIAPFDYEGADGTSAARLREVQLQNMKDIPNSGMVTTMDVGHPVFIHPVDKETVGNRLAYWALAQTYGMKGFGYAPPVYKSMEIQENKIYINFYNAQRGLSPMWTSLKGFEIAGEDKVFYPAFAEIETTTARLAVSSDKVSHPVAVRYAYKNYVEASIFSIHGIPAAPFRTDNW

[7] = The drug is tested on the gut metagenome community of MV26 with ENA study accession number: PRJEB31790 and ENA sample accession number: SAMEA5537507 for biotransformation. The drug concentrations were measured over 9 timepoints collected between 0 and 24 hours of incubation by liquid-chromatography-coupled mass spectrometry (LC–MS); assay type: ADME; set-up: dose 2 uM, timepoint 0, 1, 2, 4, 6, 8, 12, 18, 24 hours
[8] = The drug is tested on the gut metagenome community of MV11 with ENA study accession number: PRJEB31790 and ENA sample accession number: SAMEA5537492 for biotransformation. The drug concentrations were measured over 9 timepoints collected between 0 and 24 hours of incubation by liquid-chromatography-coupled mass spectrometry (LC–MS); assay type: ADME; set-up: dose 2 uM, timepoint 0, 1, 2, 4, 6, 8, 12, 18, 24 hours
[9] = The drug is tested on the gut metagenome community of MV28 with ENA study accession number: PRJEB31790 and ENA sample accession number: SAMEA5537509 for biotransformation. The drug concentrations were measured over 9 timepoints collected between 0 and 24 hours of incubation by liquid-chromatography-coupled mass spectrometry (LC–MS); assay type: ADME; set-up: dose 2 uM, timepoint 0, 1, 2, 4, 6, 8, 12, 18, 24 hours
[10] = The drug is tested on the gut metagenome community of MV01 with ENA study accession number: PRJEB31790 and ENA sample accession number: SAMEA5537482 for biotransformation. The drug concentrations were measured over 9 timepoints collected between 0 and 24 hours of incubation by liquid-chromatography-coupled mass spectrometry (LC–MS); assay type: ADME; set-up: dose 2 uM, timepoint 0, 1, 2, 4, 6, 8, 12, 18, 24 hours
[11] = molecular target: T4, SGNH hydrolase-type esterase domain-containing protein (Phocaeicola dorei, UniProt B6VTE7); experiment: The drug is tested on Bacteroides dorei strain: DSM17855 for biotransformation. The drug concentrations were measured before and after a 12-h incubation by liquid-chromatography-coupled mass spectrometry (LC–MS); assay type: ADME; set-up: dose 2 uM
T4 sequence (B6VTE7 whole entry): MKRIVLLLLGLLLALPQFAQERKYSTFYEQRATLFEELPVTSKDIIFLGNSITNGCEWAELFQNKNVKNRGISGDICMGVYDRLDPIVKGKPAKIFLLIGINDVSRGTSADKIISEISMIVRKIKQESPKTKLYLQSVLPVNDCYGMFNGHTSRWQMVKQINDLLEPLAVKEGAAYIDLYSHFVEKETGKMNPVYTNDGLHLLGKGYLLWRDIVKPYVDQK

| SMILES | Bacterial Biotransformation [1] | Bacterial Biotransformation [2] | Bacterial Biotransformation [3] | Bacterial Biotransformation [4] | Bacterial Biotransformation [5] | Bacterial Biotransformation (Lipase) | Bacterial Biotransformation [6] | Bacterial Biotransformation [7] | Bacterial Biotransformation [8] | Bacterial Biotransformation [9] | Bacterial Biotransformation [10] | Bacterial Biotransformation [11] |
| --- | --- | --- | --- | --- | --- | --- | --- | --- | --- | --- | --- | --- |
| CN1[C@@H]2CC[C@H]1C[C@@H](OC(=O)C(CO)c1ccccc1)C2 (stereo partly specified) [ATROPINE] | Compound NOT metabolized | – | – | – | – | – | – | – | – | – | – | – |
| COc1ccc([C@@H]2Sc3ccccc3N(CCN(C)C)C(=O)[C@@H]2OC(C)=O)cc1 [DILTIAZEM] | – | Compound NOT metabolized | Compound NOT metabolized | Compound NOT metabolized | Compound NOT metabolized | Compound NOT metabolized | Compound NOT metabolized | Compound NOT metabolized | Compound NOT metabolized | Compound NOT metabolized | Compound NOT metabolized | Compound NOT metabolized |
| CC(=O)OCC(CCn1cnc2cnc(N)nc21)COC(C)=O [FAMCICLOVIR] | – | Compound NOT metabolized | Compound metabolized | Compound metabolized | Compound metabolized | Compound NOT metabolized | Compound metabolized | Compound metabolized | Compound metabolized | Compound metabolized | Compound metabolized | Compound metabolized |
| O=C(CCCN1CCC(O)(c2ccc(Cl)cc2)CC1)c1ccc(F)cc1 [HALOPERIDOL] | Compound NOT metabolized | – | – | – | – | – | – | – | – | – | – | – |
| Cc1ccc(NC(=O)c2ccc(CN3CCN(C)CC3)cc2)cc1Nc1nccc(-c2cccnc2)n1 [IMATINIB] | Compound NOT metabolized | – | – | – | – | – | – | – | – | – | – | – |
| C#C[C@]1(O)CC[C@H]2[C@@H]3CCC4=CC(=O)CC[C@@H]4[C@H]3CC[C@@]21CC [LEVONORGESTREL] | – | – | – | – | Compound NOT metabolized | Compound NOT metabolized | Compound NOT metabolized | – | – | – | – | Compound NOT metabolized |
| COC(=O)Nc1nc2ccc(C(=O)c3ccccc3)cc2[nH]1 [MEBENDAZOLE] | Compound NOT metabolized | – | – | – | – | – | – | – | – | – | – | – |
| C#C[C@]1(OC(C)=O)CC[C@H]2[C@@H]3CCC4=CC(=O)CC[C@@H]4[C@H]3CC[C@@]21C [NORETHINDRONE ACETATE] | – | Compound NOT metabolized | Compound metabolized | Compound metabolized | Compound NOT metabolized | Compound NOT metabolized | Compound NOT metabolized | Compound metabolized | Compound metabolized | Compound metabolized | Compound metabolized | Compound NOT metabolized |
| C#C[C@]1(OC(C)=O)CC[C@H]2[C@@H]3CCC4=C/C(=N/O)CC[C@@H]4[C@H]3CC[C@@]21CC [NORGESTIMATE] | Compound NOT metabolized | – | – | – | – | – | – | – | – | – | – | – |
| N#Cc1ccc2c(c1)N(CCCN1CCC(O)CC1)c1ccccc1S2 [PERICIAZINE] | – | – | – | – | Compound NOT metabolized | Compound NOT metabolized | Compound NOT metabolized | – | – | – | – | Compound NOT metabolized |
